Reference: PMC10224441, “Structural Manipulations of Marine Natural Products Inspire a New Library of 3-Amino-1,2,4-Triazine PDK Inhibitors Endowed with Antitumor Activity in Pancreatic Ductal Adenocarcinoma” (Marine Drugs, 2023)
Like-named read-outs stand apart in the source and are kept apart here.

Key:
[1] = target: recombinant human HSP90 (Homo sapiens, UniProt P07900); assay: HSP90 inhibition assay (Transcreener ADP kit); format: biochemical; conditions: for inhibition of HSP90 enzyme activity: 1.5 µM compound; for IC50: isolated HSP90, four-parameter logistic model, mean of 3 independent experiments, read-out: IC50 (µM) ± S.D. HSP90
Description: Since the ATP binding pockets in PDKs and HSP90 are similar and taking into consideration that these 1,2,4-triazine derivatives conserved a chemical scaffold resembling that of the well-known Hsp90 inhibitor Ganetespib, the most performant PDK inhibitors 4d, 4f, 4h, 5d, 5f, 5h and 5j were also screened for their ability to target HSP90.
The in vitro inhibitory activity of tested compounds on recombinant human HSP90 was assessed by The Transcreener™ ADP kit (Bellbrook Labs, Madison, WI, USA) according to the manufacturer’s protocol as previously described.

[2] = system: BxPC-3 spheroids; assay: 3D spheroid cytotoxicity, acid phosphatase (APH) assay, BxPC-3; format: cell-based; conditions: Homo sapiens, 72 h, acid phosphatase (APH) test, read-out: IC50 (µM) ± S.D. BxPC-3 (3D spheroids)
[3] = system: PSN-1 cells (KRAS-mutant PDAC); assay: 2D cytotoxicity, MTT assay, PSN-1; format: cell-based; conditions: Homo sapiens, read-out: IC50 (µM) ± S.D. PSN-1 (2D)
Description: (§1) All newly developed 1,2,4-amino-triazine compounds were screened for their cytotoxic activity against two human PDAC cell lines, namely, a KRAS-wild-type PDAC cell line (BxPC-3 cells) and a KRAS-mutant PDAC cell line (PSN-1 cells). […] The cytotoxicity parameters, expressed in terms of IC50 and obtained after 72 h of drug exposure by MTT assay, are reported in Table 3.
(§2) All tested compounds were dissolved in DMSO just before the experiment, and a calculated amount of drug solution was added to the cell growth medium to a final solvent concentration of 0.5%, which had no detectable effects on cell viability.
(§3) Human pancreatic PSN-1 and BxPC-3 carcinoma cell lines were obtained by American Type Culture Collection (ATCC, Rockville, MD, USA). Cell lines were maintained in the logarithmic phase at 37 °C in a 5% carbon dioxide atmosphere using RPMI-1640 medium (EuroClone) containing 10% fetal calf serum (EuroClone, Milan, Italy), antibiotics (50 units/mL penicillin and 50 μg/mL streptomycin) and 2 mM l-glutamine.
(§4) The growth inhibitory effect on tumor cells was evaluated by means of MTT assay. Briefly, 5 × 10^3 cells/well were seeded in 96-well microplates in a growth medium (100 μL). After 24 h, the medium was removed and replaced with a fresh one containing the compound to be studied at the appropriate concentration. Triplicate cultures were established for each treatment. After 72 h, each well was treated with 10 μL of a 5 mg/mL MTT saline solution, and following 5 h of incubation, 100 μL of a sodium dodecyl sulfate (SDS) solution in HCl 0.01 M was added. After overnight incubation, cell growth inhibition was detected by measuring the absorbance of each well at 570 nm using a Bio-Rad 680 microplate reader. The mean absorbance for each drug dose was expressed as a percentage of the control untreated well absorbance and plotted vs. drug concentration. IC50 values, the drug concentrations that reduce the mean absorbance at 570 nm to 50% of those in the untreated control wells, were calculated by the four-parameter logistic (4-PL) model. The evaluation was based on means from at least four independent experiments.

[4] = system: BxPC-3 cells (KRAS-wild-type PDAC); assay: 2D cytotoxicity, MTT assay, BxPC-3; format: cell-based; conditions: Homo sapiens, read-out: IC50 (µM) ± S.D. BxPC-3 (2D)
Description: as §1, §2, §3, §4

[5] = target: T1, recombinant human PDK1 (Homo sapiens, UniProt Q15118); assay: PDK1 ADPGlo Kinase Assay; format: biochemical; conditions: for inhibition of PDK1 enzymatic activity: 1.5 µM compound, 30 min, room temperature; for IC50: isolated PDK1 isoform, four-parameter logistic model, mean of 3 independent experiments, read-out: IC50 (µM) ± S.D. PDK1
T1 construct: purchased Abcam
T1 sequence (Q15118 29-436): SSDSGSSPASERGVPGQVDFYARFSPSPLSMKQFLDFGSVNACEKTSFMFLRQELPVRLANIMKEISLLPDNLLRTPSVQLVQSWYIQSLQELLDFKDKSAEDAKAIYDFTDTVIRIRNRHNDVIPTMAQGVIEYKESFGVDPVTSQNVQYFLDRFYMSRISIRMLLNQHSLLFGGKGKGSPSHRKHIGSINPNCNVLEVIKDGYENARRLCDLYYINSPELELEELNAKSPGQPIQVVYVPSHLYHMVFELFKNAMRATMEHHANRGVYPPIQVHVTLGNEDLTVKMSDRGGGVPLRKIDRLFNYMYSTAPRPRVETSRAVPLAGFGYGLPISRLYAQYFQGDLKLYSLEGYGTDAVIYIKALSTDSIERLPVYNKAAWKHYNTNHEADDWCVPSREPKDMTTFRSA
Description: The ability of the tested compounds to hamper the activity of PDK1-4 isoforms was firstly evaluated by means of a chemioluminescent assay, the ADPGlo™ Kinase Assay kit (Promega Corporation, Madison, WI, USA).
(§5) The in vitro inhibitory activity of tested compounds on recombinant human PDK1-4 isoforms (Abcam, Cambridge, MA, USA) was evaluated by using the ADPGlo™ Kinase Assay kit from Promega (Promega Corporation, Madison, WI, USA) following the instructions of the manufacturer, as previously described.

[6] = target: T2, recombinant human PDK4 (Homo sapiens, UniProt Q16654); assay: PDK4 ADPGlo Kinase Assay; format: biochemical; conditions: 1.5 µM compound, 30 min, room temperature
T2 construct: purchased Abcam
T2 sequence (Q16654 whole entry): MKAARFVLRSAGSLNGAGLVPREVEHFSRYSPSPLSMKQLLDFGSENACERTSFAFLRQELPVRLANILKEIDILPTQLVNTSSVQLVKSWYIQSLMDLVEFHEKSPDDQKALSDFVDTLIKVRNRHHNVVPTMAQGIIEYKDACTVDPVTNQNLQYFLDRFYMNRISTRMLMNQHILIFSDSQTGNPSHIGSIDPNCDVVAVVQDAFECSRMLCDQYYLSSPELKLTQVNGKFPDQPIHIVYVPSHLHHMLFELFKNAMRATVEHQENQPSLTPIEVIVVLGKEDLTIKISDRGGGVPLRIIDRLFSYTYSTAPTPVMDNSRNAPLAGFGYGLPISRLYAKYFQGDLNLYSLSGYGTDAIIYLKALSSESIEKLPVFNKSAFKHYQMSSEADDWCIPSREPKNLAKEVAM
Description: The ability of the tested compounds to hamper the activity of PDK1-4 isoforms was firstly evaluated by means of a chemioluminescent assay, the ADPGlo™ Kinase Assay kit (Promega Corporation, Madison, WI, USA). The results obtained by incubating PDK1-4 isoforms for 30 min at room temperature with 1.5 µM of tested compounds are depicted in Figure 3 panel A as a heat-map summary of the inhibition percentage on PDK1-4 enzymatic activity. All the newly synthesized compounds were able to inhibit the pyruvate dehydrogenase kinases, although to a different extent and showing a preferential activity towards the PDK1 and PDK4 isoforms. […] Conversely, all tested 1,2,4-triazin-3-amines were barely effective in blocking PDK2 activity at 1.5 µM concentration. In addition, IC50 values on the PDK1 isoform were also calculated for all synthesized derivatives and the results are shown in Table 2.
as §5

[7] = system: PSN-1 spheroids; assay: 3D spheroid cytotoxicity, acid phosphatase (APH) assay, PSN-1; format: cell-based; conditions: Homo sapiens, PSN1, 72 h, acid phosphatase (APH) test, read-out: IC50 (µM) ± S.D. PSN-1 (3D spheroids)
Description: Prompted by these encouraging results, we also screened the newly developed 1,2,4-triazine compounds against 3D spheroids of PDAC KRAS wild-type and mutant cells, to further estimate their anticancer potential in a more predictive environment. […] The PDAC cancer spheroids were treated with tested compounds for 72 h, and cell viability was assessed by means of the acid phosphatase (APH) assay (Table 3). The efficacy of gemcitabine as well as of DCA and DAP was assessed under the same experimental conditions.
Spheroid cultures were obtained by seeding 2.5 × 10^3 PSN-1 cancer cells/well in a round-bottom non-treated tissue culture 96-well plate (Greiner Bio-one, Kremsmünster, Austria) in phenol red-free RPMI-1640 medium (Sigma Chemical Co, St. Louis, MO, USA) containing 10% fetal calf serum and supplemented with 20% methylcellulose stock solution.
An APH-modified assay was used for determining cell viability in 3D spheroids, as previously described. Briefly, the pre-seeded spheroids were treated with fresh medium containing the compound to be studied at the appropriate concentration (range 2.5–200 μM). Triplicate cultures were established for each treatment. After 72 h, each well was treated with 100 μL of the assay buffer (0.1 M sodium acetate, 0.1% Triton-X-100, supplemented with ImmunoPure p-nitrophenyl phosphate; Sigma Chemical Co.) and, following 3 h of incubation, 10 μL of 1 M NaOH solution were added. The inhibition of the cell growth induced by the tested compounds was detected by measuring the absorbance of each well at 405 nm, using a Bio-Rad 680 microplate reader. The mean absorbance for each drug dose was expressed as a percentage of the control untreated well absorbance (T/C) and plotted vs. drug concentration. IC50 values, the drug concentrations that reduce the mean absorbance at 405 nm 50% of those in the untreated control wells, were calculated by the four-parameter logistic (4-PL) model. The evaluation was based on means from at least four independent experiments.

[8] = PSN1, 72 h exposure, MTT test, 2D culture
[9] = BXPC-3, 72 h exposure, MTT test, 2D culture

| Compound | inhibition of HSP90 enzyme activity [1] | IC50 [1] [µM] | inhibition of PDK1 enzymatic activity [5] | IC50 [5] [µM] | inhibition of PDK4 enzymatic activity [6] | melting point [°C] | IC50 [2] [µM] | IC50 [3, 8] [µM] | IC50 [4, 9] [µM] | IC50 [7] [µM] | IC50 ([3]; PSN1, 72 h) [µM] | IC50 ([4]; BXPC-3, 72 h) [µM] |
| --- | --- | --- | --- | --- | --- | --- | --- | --- | --- | --- | --- | --- |
| Cn1cc(-c2nnc(N)nc2-c2cn(C)c3ncc(Br)cc23)c2cc(Br)ccc21 [4d, 6-(5-Bromo-1-methyl-1H-indol-3-yl)-5-(5-bromo-1-methyl-1H-pyrrolo[2,3-b]pyridin-3-yl)-1,2,4-triazin-3-amine] | completely abolish | 0.06 ± 0.02 | totally hampered | 0.04 ± 0.02 | completely suppress |  | 176 ± 15.7 | 23.4 ± 3.7 | 30.2 ± 6.2 | 103 ± 9.1 |  |  |
| Cn1cc(-c2nnc(N)nc2-c2cn(C)c3ncc(Br)cc23)c2cc(Cl)ccc21 [4f, 5-(5-Bromo-1-methyl-1H-pyrrolo[2,3-b]pyridin-3-yl)-6-(5-chloro-1-methyl-1H-indol-3-yl)-1,2,4-triazin-3-amine] | completely abolish | 0.1 ± 0.03 | totally hampered | 0.12 ± 0.04 |  | 262.1 | 169 ± 12.4 | 11.3 ± 1.8 | 18.4 ± 1.4 | 162 ± 6.8 |  |  |
| Cn1cc(-c2nnc(N)nc2-c2cn(C)c3ncc(Br)cc23)c2cc(F)ccc21 [4h, 5-(5-Bromo-1-methyl-1H-pyrrolo[2,3-b]pyridin-3-yl)-6-(5-fluoro-1-methyl-1H-indol-3-yl)-1,2,4-triazin-3-amine] | completely abolish |  | totally hampered | 0.06 ± 0.02 |  | 155.6 | 188 ± 14.4 | 17.5 ± 2.8 | 22.3 ± 2.4 | 77.8 ± 3.8 |  |  |
| O=C(c1ccccc1)C(Cl)Cl [DAP, 2,2-dichloroacetophenone, reference compound] |  | 698 ± 83 |  | 212 ± 48 |  |  | 78.2 ± 6.2 |  |  | 87.4 ± 8.9 | 10.2 ± 1.6 | 16.5 ± 0.9 |

More lines, main results first:

| inhibition of HSP90 enzyme activity [1] | IC50 [1] [µM] | inhibition of PDK1 enzymatic activity [5] | IC50 [5] [µM] | inhibition of PDK4 enzymatic activity [6] | melting point [°C] | Compound | IC50 [2] [µM] | IC50 [3, 8] [µM] | IC50 [4, 9] [µM] | IC50 [7] [µM] | IC50 ([3]; PSN1, 72 h) [µM] | IC50 ([4]; BXPC-3, 72 h) [µM] |
| --- | --- | --- | --- | --- | --- | --- | --- | --- | --- | --- | --- | --- |
| completely abolish | 0.07 ± 0.01 | totally hampered | 0.05 ± 0.02 | completely suppress | 333.7 | Cn1cc(-c2nc(N)nnc2-c2cn(C)c3ncc(Br)cc23)c2cc(Br)ccc21 [5d, 5-(5-Bromo-1-methyl-1H-indol-3-yl)-6-(5-bromo-1-methyl-1H-pyrrolo[2,3-b]pyridin-3-yl)-1,2,4-triazin-3-amine] | 198 ± 14.2 | 21.3 ± 3.5 | 26.7 ± 6.1 | 216 ± 13.6 |  |  |
| completely abolish | 0.11 ± 0.04 | totally hampered | 0.08 ± 0.02 | completely suppress | 334.6 | Cn1cc(-c2nc(N)nnc2-c2cn(C)c3ncc(Br)cc23)c2cc(Cl)ccc21 [5f, 6-(5-Bromo-1-methyl-1H-pyrrolo[2,3-b]pyridin-3-yl)-5-(5-chloro-1-methyl-1H-indol-3-yl)-1,2,4-triazin-3-amine] | 229 ± 17.2 | 21.3 ± 4.4 | 22.4 ± 3.2 | 213 ± 14.4 |  |  |
| completely abolish | 0.09 ± 0.03 | totally hampered | 0.05 ± 0.03 | completely suppress | 311.1 | Cn1cc(-c2nc(N)nnc2-c2cn(C)c3ncc(Br)cc23)c2cc(F)ccc21 [5h, 6-(5-Bromo-1-methyl-1H-pyrrolo[2,3-b]pyridin-3-yl)-5-(5-fluoro-1-methyl-1H-indol-3-yl)-1,2,4-triazin-3-amine] | 208 ± 12.7 | 27.4 ± 5.1 | 0.05 ± 0.03 | 132 ± 5.9 |  |  |
|  |  |  | 0.31 ± 0.07 |  | 288.2 | COc1ccc2c(c1)c(-c1nc(N)nnc1-c1cn(C)c3ncccc13)cn2C [5i, 5-(5-Methoxy-1-methyl-1H-indol-3-yl)-6-(1-methyl-1H-pyrrolo[2,3-b]pyridin-3-yl)-1,2,4-triazin-3-amine] | 153 ± 10.3 | 14.9 ± 3.2 | 0.31 ± 0.07 | 112 ± 9.1 |  |  |
